{"source": "patent US20230081064A1", "about": "“FORMULATIONS FOR DELIVERY TO THE EAR” (Spiral Therapeutics Inc., priority 2021, published 2023)", "test": "Solubility of the active agent in water", "type": "physicochemical", "data": [{"smiles": "COc1ccc2[nH]cc(CCNC(=O)CC3C(=O)N(CCc4ccc(Cl)cc4Cl)CC(=O)N3CCc3cccs3)c2c1", "note": "(stereo not shown) [LPT99, 2-(4-(2,4-Dichlorophenethyl)-3,6-dioxo-1-(2-(thiophen-2-yl)ethyl)piperazin-2-yl)-N-(2-(5-methoxy-1H-indol-3-yl)ethyl)acetamide]", "values": [{"measurement": "solubility", "value": "~2.4", "unit": "µM"}]}]}
